The values that follow come from ChEMBL document CHEMBL1156472, “Structural variation governs substrate specificity for organic anion transporter (OAT) homologs. Potential remote sensing by OAT family members” (J Biol Chem, 2007).

pKi: −log10 of the molar value.

One series deals with T1, Solute carrier family 22 member 20 (Mus musculus, UniProt Q80UJ1).
T1 sequence (Q80UJ1 whole entry): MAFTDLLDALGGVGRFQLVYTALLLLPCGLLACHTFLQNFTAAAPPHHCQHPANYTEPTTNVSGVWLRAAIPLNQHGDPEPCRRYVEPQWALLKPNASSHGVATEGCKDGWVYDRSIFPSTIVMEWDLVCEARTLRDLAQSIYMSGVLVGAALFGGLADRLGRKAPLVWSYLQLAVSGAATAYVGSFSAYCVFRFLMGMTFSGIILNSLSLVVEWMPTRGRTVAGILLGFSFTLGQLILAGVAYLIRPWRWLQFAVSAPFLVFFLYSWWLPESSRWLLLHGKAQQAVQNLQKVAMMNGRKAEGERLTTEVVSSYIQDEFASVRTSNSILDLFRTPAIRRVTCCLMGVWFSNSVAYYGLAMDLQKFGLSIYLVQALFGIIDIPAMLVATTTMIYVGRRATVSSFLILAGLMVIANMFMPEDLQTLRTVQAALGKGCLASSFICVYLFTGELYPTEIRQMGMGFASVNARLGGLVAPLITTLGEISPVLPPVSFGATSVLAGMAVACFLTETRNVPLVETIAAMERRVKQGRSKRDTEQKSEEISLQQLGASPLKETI
Kind of series: Activity of mouse Oat6 expressed in Xenopus oocytes assessed as drug uptake. It is filed as cell-based. As to conditions: oocyte.
Consider `CC(C)Cc1ccc(C(C)C(=O)O)cc1` (stereo not drawn) [IBUPROFEN], for which the Vmax turned out to be 0.28 pmol/h. Still for that read-out and setting: to `CCCCC[C@H](O)/C=C/[C@H]1[C@H](O)CC(=O)[C@@H]1C/C=C\CCCC(=O)O` [DINOPROSTONE] belongs 0.9 pmol/h.

With `C[C@]12CC[C@@H]3c4ccc(OS(=O)(=O)O)cc4CC[C@H]3[C@@H]1CCC2=O` [ESTRONE SULFURIC ACID], the Vmax turned out to be 40 pmol/h.

As to `C[C@@H]1Cc2c(Cl)cc(C(=O)N[C@@H](Cc3ccccc3)C(=O)O)c(O)c2C(=O)O1` [3R14S-OCHRATOXIN A], the Vmax is 4.8 pmol/h. Same read-out and setting: in the case of `Nc1ccc(C(=O)NCC(=O)O)cc1` [AMINOHIPPURIC ACID] it was 4.6 pmol/h.

For the next series, the target named is T1, Solute carrier family 22 member 20. Kind of series: Inhibition of mouse Oat6-mediated [3H]ES uptake in Xenopus oocytes after 1 hr. It is filed as cell-based, Oocyte. To be noted: read-out: Ki.
Consider `CC(C)CC(=O)O` [3-METHYLBUTANOIC ACID], for which the pKi was 4.49.

For the compound `O=C(O)c1ccccc1` [BENZOIC ACID], the pKi was 4.86. Same read-out and setting: in the case of `CC1(C)S[C@@H]2[C@H](NC(=O)Cc3ccccc3)C(=O)N2[C@H]1C(=O)O` (single isomer, unassigned) [PENICILLIN G SODIUM] it was 3.34. Same read-out and setting: in the case of `CC1(C)S[C@@H]2[C@H](NC(=O)C(C(=O)O)c3ccccc3)C(=O)N2[C@H]1C(=O)O` (stereo partly drawn) [CARBENICILLIN DISODIUM] it was 2.88. `CC(=O)NC(CC(=O)O)C(=O)O` (stereo not drawn): the pKi is 1.56.

Consider `O=C1OC2(c3ccc(O)cc3Oc3cc(O)ccc32)c2ccccc21` [FLUORESCEIN], for which the pKi is 4.00. Still for that read-out and setting: in the case of `CCCCCC(=O)O` [HEXANOATE] it was 5.05. The same measure, in the same setting: to `CC(O)CC(=O)O` (stereo not drawn) [3-HYDROXYBUTYRIC ACID, (+/-)-] belongs 3.72; to `C[C@]12CC[C@@H]3c4ccc(OS(=O)(=O)O)cc4CC[C@H]3[C@@H]1CC[C@@H]2OS(=O)(=O)O` [ESTRADIOL DISULFATE], 2.14. Still for that read-out and setting: in the case of `O=C(O)CCCCC(=O)O` [ADIPIC ACID] it was 2.80; in that of `CCC(=O)O` [PROPIONIC ACID], 3.55; in that of `O=C(O)c1ccccc1O` [SALICYLIC ACID], 4.36.

Take `CC(C)Cc1ccc(C(C)C(=O)O)cc1` (stereo not drawn) [IBUPROFEN]: the pKi was 5.96. On to `CCCCC[C@H](O)/C=C/[C@H]1[C@H](O)CC(=O)[C@@H]1C/C=C\CCCC(=O)O` [DINOPROSTONE], for which the pKi is 4.74. The same measure, in the same setting: to `O=C(O)/C=C/C(=O)O` [FUMARIC ACID] belongs less than 1.52. Same read-out and setting: in the case of `O=C(O)c1ccccc1-c1c2cc(Br)c(=O)c(Br)c-2oc2c(Br)c(O)c(Br)cc12` it was 5.36. Consider `C[C@]12CC[C@@H]3c4ccc(OS(=O)(=O)O)cc4CC[C@H]3[C@@H]1CCC2=O` [ESTRONE SULFURIC ACID], for which the pKi is 4.24. With `CC1(C)S[C@@H]2[C@H](NC(=O)[C@H](C(=O)O)c3ccsc3)C(=O)N2[C@H]1C(=O)O` [TICARCILLIN], the pKi is 3.27. `O=C(O)C(O)Cc1ccc(O)cc1` (stereo not drawn): the pKi is 3.74. Still for that read-out and setting: in the case of `O=C(O)CNC(=O)c1ccccc1` [HIPPURIC ACID] it was 3.51; in that of `CCCN(CCC)S(=O)(=O)c1ccc(C(=O)O)cc1` [PROBENECID], 5.08.

With `O=C(O)CCCCCCC(=O)O` [OCTANEDIOATE], the pKi was 2.95. For the compound `CN(Cc1cnc2nc(N)nc(N)c2n1)c1ccc(C(=O)NC(CCC(=O)O)C(=O)O)cc1` (single isomer, unassigned) [METHOTREXATE], the pKi is 3.22. On the same count and under the same terms, in the case of `CCCCC(CC)C(=O)O` (stereo not drawn) [2-ETHYLHEXANOIC ACID] it was 5.18; in that of `CC(=O)Oc1ccccc1C(=O)O` [ASPIRIN], 4.00; in that of `O=C(O)CCCC(=O)O` [GLUTARATE], 2.27. The same measure, in the same setting: to `CCCCCCC(=O)O` [HEPTANOATE] belongs 5.09; to `C[C@@H]1Cc2c(Cl)cc(C(=O)N[C@@H](Cc3ccccc3)C(=O)O)c(O)c2C(=O)O1` [3R14S-OCHRATOXIN A], 4.31. The same measure, in the same setting: to `Nc1ccc(C(=O)NCC(=O)O)cc1` [AMINOHIPPURIC ACID] belongs 3.35; to `O=C(O)C(=O)Cc1ccccc1` [PHENYLPYRUVATE], 4.54; to `O=C(O)C(=O)Cc1ccc(O)cc1` [4-HYDROXYPHENYLPYRUVIC ACID], 4.18. For `CC(C)C(O)C(=O)O` (stereo not drawn), the pKi was 3.50. Same read-out and setting: in the case of `CC(=O)C(=O)O` [PYRUVATE] it was 3.57. Same read-out and setting: in the case of `CCCC(=O)O` [BUTYRIC ACID] it was 4.09.

Staying with this series, now noted: read-out: pKi (converted).
`O=C(O)[C@@H](O)Cc1ccc(O)cc1`: the Ki is 182 µM.

For the compound `CC(=O)N[C@@H](CC(=O)O)C(=O)O`, the Ki is 27500 µM. Same read-out and setting: in the case of `C[C@H](O)CC(=O)O` it was 191 µM; in that of `CCCC[C@@H](CC)C(=O)O`, 6.61 µM. For `CCCC[C@H](CC)C(=O)O`, the Ki was 6.61 µM.

As to `O=C(O)/C=C/C(=O)O` [FUMARIC ACID], the Ki was more than 31600 µM. Still for that read-out and setting: to `CC(C)[C@H](O)C(=O)O` belongs 316 µM; to `C[C@@H](O)CC(=O)O` [(R)-3-HYDROXYBUTANOATE], 191 µM. The same measure, in the same setting: in the case of `CC(C)[C@@H](O)C(=O)O` [DEAMINOHYDROXYVALINE] it was 316 µM.

By Vmax is commonly meant the rate approached at saturating substrate. The term pKi denotes the negative decadic logarithm of the Ki, by convention in mol/L.
